Where “and” joins values, the source holds several entries; their conditions need not be identical. Equal values may be shown once. Read-outs that look alike come from different tables or passages of the source.
How the values were obtained:
Assay in all cases: in vitro cleavage assay, Aβ40 production by AlphaLISA
Type in all cases: biochemical
[1] = biological target: T1, PS2 PI287-288TL γ-secretase complex (Homo sapiens, UniProt P49810, I288L/P287T); details: PS2 PI287-288TL, mean ± SD
T1 construct: made in house
Procedure: (§1) In total we generated six variants, including single and double residue swapping of Thr281/Leu282 in PS1 with Pro287/Ile288 in PS2, respectively. MRK-560 response to the six PS1/PS2 mutant-containing complexes, each purified to homogeneity, was examined in the in vitro cleavage assay (Fig. 4). All proteins used for the activity assay were sub-cloned, expressed and purified as described. Protein concentration was determined using the Bradford method. […] The cleavage reaction was conducted at 37 °C for 4 h. The cleaved products of these substrates were detected using a monoclonal antibody (1:1000 dilution, CW0299, CWBio) against the C-terminal Myc tag. Aβ40 production was detected using the AlphaLISA assay (PerkinElmer) as described. The IC50 values and the inhibition curves were calculated using Prism 8.0. Statistical analysis of Aβ40 was performed using Prism 8 (GraphPad Software, San Diego, CA, USA). IC50 were determined by a four-parameter logistic regression. The statistical details can be found in Figs. 1, 4 and legends. Data are expressed as mean ± SD.

[2] = biological target: T2, PS1 TL281-282PI γ-secretase complex (Homo sapiens, UniProt P49768, L282I/T281P); details: for remaining activity at 0.002 µM / remaining activity at 0.01 µM / remaining activity at 0.04 µM / remaining activity at 0.2 µM / remaining activity at 1 µM / remaining activity at 10 µM: 4 h; for remaining activity at 0.002 µM / remaining activity at 0.01 µM / remaining activity at 0.04 µM / remaining activity at 0.2 µM / remaining activity at 1 µM / remaining activity at 10 µM / Caculated Aβ40 production / raw data from α-Lisa reading: PS1TL 281 282PI
T2 construct: made in house
Procedure: as §1

[3] = biological target: T3, PS1 L282I γ-secretase complex (Homo sapiens, UniProt P49768, L282I); details: for remaining activity at 0.002 µM / remaining activity at 0.01 µM / remaining activity at 0.04 µM / remaining activity at 0.2 µM / remaining activity at 1 µM / remaining activity at 10 µM: 4 h; for remaining activity at 0.002 µM / remaining activity at 0.01 µM / remaining activity at 0.04 µM / remaining activity at 0.2 µM / remaining activity at 1 µM / remaining activity at 10 µM / Caculated Aβ40 production / raw data from α-Lisa reading: PS1 L282I
T3 construct: made in house
Procedure: as §1

[4] = MRK-560 2 nM, mean of 3 replicates, read-out: Normalized production (control=1), Mean
[5] = MRK-560 2 nM, replicates, read-out: Normalized production (control=1)
[6] = MRK-560 10 nM, mean of 3 replicates, read-out: Normalized production (control=1), Mean
[7] = MRK-560 10 nM, replicates, read-out: Normalized production (control=1)
[8] = MRK-560 40 nM, mean of 3 replicates, read-out: Normalized production (control=1), Mean
[9] = MRK-560 40 nM, replicates, read-out: Normalized production (control=1)
[10] = MRK-560 200 nM, mean of 3 replicates, read-out: Normalized production (control=1), Mean
[11] = MRK-560 200 nM, replicates, read-out: Normalized production (control=1)
[12] = MRK-560 1 μM, mean of 3 replicates, read-out: Normalized production (control=1), Mean
[13] = MRK-560 1 μM, replicates, read-out: Normalized production (control=1)
[14] = MRK-560 10 μM, mean of 3 replicates, read-out: Normalized production (control=1), Mean
[15] = MRK-560 10 μM, replicates, read-out: Normalized production (control=1)

IC50 [1]: 25 ± 4 nM | IC50 [2]: 195 ± 16 nM | remaining activity at 0.002 µM [2, 4]: 116% | remaining activity at 0.002 µM [2, 5]: 115% | remaining activity at 0.01 µM [2, 6]: 112% | remaining activity at 0.01 µM [2, 7]: 113% | remaining activity at 0.04 µM [2, 8]: 105% | remaining activity at 0.04 µM [2, 9]: 103% | remaining activity at 0.2 µM [2, 10]: 57.2% | remaining activity at 0.2 µM [2, 11]: 59.1% | remaining activity at 1 µM [2, 12]: 11.1% | remaining activity at 1 µM [2, 13]: 11% | remaining activity at 10 µM [2, 14]: 1.33% | remaining activity at 10 µM [2, 15]: 1.43% | Caculated Aβ40 production ([2]; MRK-560 2 nM, replicates): 380.9708 and 384.7930 and 381.0949 | raw data from α-Lisa reading ([2]; MRK-560 2 nM, replicates): 58097 and 58620 and 58114 | Caculated Aβ40 production ([2]; MRK-560 10 nM, replicates): 372.0557 and 371.8958 and 369.4343 | raw data from α-Lisa reading ([2]; MRK-560 10 nM, replicates): 56873 and 56851 and 56512 | Caculated Aβ40 production ([2]; MRK-560 40 nM, replicates): 339.5167 and 363.4357 and 337.7821 | raw data from α-Lisa reading ([2]; MRK-560 40 nM, replicates): 52356 and 55684 and 52113 | Caculated Aβ40 production ([2]; MRK-560 200 nM, replicates): 195.2943 and 180.8050 and 191.3579 | raw data from α-Lisa reading ([2]; MRK-560 200 nM, replicates): 31350 and 29146 and 30753 | Caculated Aβ40 production ([2]; MRK-560 1 μM, replicates): 36.3190 and 36.2828 and 37.2900 | raw data from α-Lisa reading ([2]; MRK-560 1 μM, replicates): 6150 and 6144 and 6311 | Caculated Aβ40 production ([2]; MRK-560 10 μM, replicates): 4.7413 and 3.9425 and 4.5046 | raw data from α-Lisa reading ([2]; MRK-560 10 μM, replicates): 864 and 729 and 824 | IC50 [3]: 90 ± 10 nM | remaining activity at 0.002 µM [3, 4]: 111% | remaining activity at 0.002 µM [3, 5]: 110% | remaining activity at 0.01 µM [3, 6]: 108% | remaining activity at 0.01 µM [3, 7]: 104% | remaining activity at 0.04 µM [3, 8]: 83.5% | remaining activity at 0.04 µM [3, 9]: 83.1% | remaining activity at 0.2 µM [3, 10]: 28.8% | remaining activity at 0.2 µM [3, 11]: 28.2% | remaining activity at 1 µM [3, 12]: 3.17% | remaining activity at 1 µM [3, 13]: 3.28% | remaining activity at 10 µM [3, 14]: 0.83% | remaining activity at 10 µM [3, 15]: 0.9% | Caculated Aβ40 production ([3]; MRK-560 2 nM, replicates): 281.9088 and 286.0465 and 285.6579 | raw data from α-Lisa reading ([3]; MRK-560 2 nM, replicates): 44163 and 44760 and 44704 | Caculated Aβ40 production ([3]; MRK-560 10 nM, replicates): 268.0187 and 289.2618 and 277.4973 | raw data from α-Lisa reading ([3]; MRK-560 10 nM, replicates): 42149 and 45223 and 43525 | Caculated Aβ40 production ([3]; MRK-560 40 nM, replicates): 213.5518 and 216.6350 and 213.7318 | raw data from α-Lisa reading ([3]; MRK-560 40 nM, replicates): 34102 and 34564 and 34129 | Caculated Aβ40 production ([3]; MRK-560 200 nM, replicates): 72.5045 and 76.2274 and 73.8042 | raw data from α-Lisa reading ([3]; MRK-560 200 nM, replicates): 12089 and 12693 and 12300 | Caculated Aβ40 production ([3]; MRK-560 1 μM, replicates): 8.4328 and 8.0651 and 7.9702 | raw data from α-Lisa reading ([3]; MRK-560 1 μM, replicates): 1487 and 1425 and 1409 | Caculated Aβ40 production ([3]; MRK-560 10 μM, replicates): 2.3045 and 1.9913 and 2.1331 | raw data from α-Lisa reading ([3]; MRK-560 10 μM, replicates): 452 and 399 and 423
SMILES: O=S(=O)(NC1CCC(c2cc(F)ccc2F)(S(=O)(=O)c2ccc(Cl)cc2)CC1)C(F)(F)F (stereo not drawn) [MRK-560, N-[cis-4-[(4-chlorophenyl)sulfonyl]-4-(2,5-difluorophenyl)cyclohexyl]-1,1,1-trifluoromethanesulfonamide]

From paper PMC9587990, “Molecular basis for isoform-selective inhibition of presenilin-1 by MRK-560” (Nature Communications, 2022)
